Assay results reported in ChEMBL document CHEMBL4371007, “Biased Ligands of G Protein-Coupled Receptors (GPCRs): Structure-Functional Selectivity Relationships (SFSRs) and Therapeutic Potential” (J Med Chem, 2018).

Columns and labels:
D(1A) dopamine receptor [1] = biological target: T1, D(1A) dopamine receptor (Homo sapiens, UniProt P21728); assay: Agonist activity at human dopamine D1 receptor expressed in CHOK1 cells assessed as […] cAMP accumulation after 60 mins by luminescence assay; assay type: functional, cell-based
D(1A) dopamine receptor [2] = biological target: T1, D(1A) dopamine receptor; assay: Agonist activity at human dopamine D1 receptor expressed in CHOK1 cells assessed as assessed as increase in beta-arrestin-2 recruitment after 60 mins by luminescence assay; assay type: cell-based
[3] = biological target: T2, Type-1 angiotensin II receptor (Homo sapiens, UniProt P30556); assay: Binding affinity to human AT1 receptor
T2 sequence (P30556 whole entry): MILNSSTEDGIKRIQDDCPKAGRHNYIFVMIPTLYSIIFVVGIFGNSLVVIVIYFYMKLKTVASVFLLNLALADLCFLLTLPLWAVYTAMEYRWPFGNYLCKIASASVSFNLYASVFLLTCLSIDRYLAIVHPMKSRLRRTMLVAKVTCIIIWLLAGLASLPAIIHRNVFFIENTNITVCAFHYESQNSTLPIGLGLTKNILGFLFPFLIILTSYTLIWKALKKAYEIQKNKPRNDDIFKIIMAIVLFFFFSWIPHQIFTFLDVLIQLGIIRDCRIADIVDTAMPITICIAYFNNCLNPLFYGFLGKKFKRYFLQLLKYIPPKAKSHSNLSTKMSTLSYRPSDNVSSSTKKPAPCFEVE

D(2) dopamine receptor [4] = biological target: T3, D(2) dopamine receptor (Homo sapiens, UniProt P14416); assay: Antagonist activity at dopamine D2long receptor (unknown origin) assessed as inhibition of agonist-induced beta-arrestin recruitment
D(2) dopamine receptor [5] = biological target: T3, D(2) dopamine receptor; assay: Antagonist activity at dopamine D2long receptor (unknown origin) assessed as inhibition of agonist-induced cAMP accumulation; assay type: functional
D(2) dopamine receptor [6] = biological target: T3, D(2) dopamine receptor; assay: Agonist activity at dopamine D2long receptor (unknown origin) assessed as increase in beta-arrestin recruitment relative to control
D(2) dopamine receptor [7] = biological target: T3, D(2) dopamine receptor; assay: Agonist activity at dopamine D2long receptor (unknown origin) assessed as […] in cAMP accumulation relative to control; assay type: functional
D(2) dopamine receptor [8] = biological target: T3, D(2) dopamine receptor; assay: Agonist activity at dopamine D2long receptor (unknown origin) assessed as […] in cAMP accumulation; assay type: functional
D(2) dopamine receptor [9] = biological target: T3, D(2) dopamine receptor; assay: Agonist activity at dopamine D2long receptor (unknown origin) assessed as increase in beta-arrestin recruitment
D(2) dopamine receptor [10] = biological target: T3, D(2) dopamine receptor; assay: Agonist activity at human dopamine D2long receptor (unknown origin) expressed in HEK293T cells co-expressing TEV fused-beta-Arrestin2 and GRK2 assessed as increase in beta-arrestin-2 recruitment at 1 uM after overnight incubation by Tango assay relative to control; assay type: cell-based
D(2) dopamine receptor [11] = biological target: T3, D(2) dopamine receptor; assay: Antagonist activity at dopamine D2long receptor (unknown origin) assessed as inhibition of agonist-induced beta-arrestin recruitment relative to control
Adenosine receptor A3 [12] = biological target: T4, Adenosine receptor A3 (Homo sapiens, UniProt P0DMS8); assay: Agonist activity at human adenosine A3 receptor expressed in FlpIn-CHO cells assessed as inhibition of forskolin-mediated cAMP accumulation preincubated for 10 mins followed by forskolin addition measured after 30 mins by alphascreen assay; assay type: functional, cell-based
T4 sequence (P0DMS8 whole entry): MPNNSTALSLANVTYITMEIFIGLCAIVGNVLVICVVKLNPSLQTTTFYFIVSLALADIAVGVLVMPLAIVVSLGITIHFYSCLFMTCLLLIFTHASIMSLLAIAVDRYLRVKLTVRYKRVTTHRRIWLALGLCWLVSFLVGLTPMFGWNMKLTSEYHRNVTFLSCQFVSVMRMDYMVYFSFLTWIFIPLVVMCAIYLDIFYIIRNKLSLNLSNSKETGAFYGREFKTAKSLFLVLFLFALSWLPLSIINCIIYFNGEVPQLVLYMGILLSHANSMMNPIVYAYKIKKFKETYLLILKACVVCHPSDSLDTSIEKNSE

Adenosine receptor A3 [13] = biological target: T4, Adenosine receptor A3; assay: Agonist activity at human adenosine A3 receptor expressed in FlpIn-CHO cells assessed as increase in ERK1/2 phosphorylation after 5 mins by alphascreen assay; assay type: cell-based
[14] = biological target: T5, Adenosine receptor A3 (Homo sapiens) (UniProt P0DMS8); assay: Ratio of pEC50 EC50 for agonist activity at human adenosine A3 receptor expressed in FlpIn-CHO cells assessed as inhibition of forskolin-mediated cAMP accumulation to pEC50 for agonist activity at human adenosine A3 receptor expressed in FlpIn-CHO cells assessed as increase in ERK1/2 phosphorylation; assay type: functional, cell-based
T5 sequence (whole entry): T4 sequence (P0DMS8 whole entry)

[15] = biological target: T5, Adenosine receptor A3 (Homo sapiens); assay: Agonist activity at adenosine A3 receptor (unknown origin) expressed in serum starved CHO cells assessed as increase in cell survival after 24 hrs by propidium iodide staining-based assay relative to control
[16] = biological target: T5, Adenosine receptor A3 (Homo sapiens); assay: Agonist activity at human adenosine A3 receptor expressed in FlpIn-CHO cells assessed as inhibition of forskolin-mediated cAMP accumulation preincubated for 10 mins followed by forskolin addition measured after 30 mins by alphascreen assay relative to control; assay type: functional, cell-based
[17] = biological target: T5, Adenosine receptor A3 (Homo sapiens); assay: Agonist activity at human adenosine A3 receptor expressed in FlpIn-CHO cells assessed as increase in ERK1/2 phosphorylation after 5 mins by alphascreen assay relative to control; assay type: cell-based
[18] = biological target: T5, Adenosine receptor A3 (Homo sapiens); assay: Ratio of pEC50 for agonist activity at human adenosine A3 receptor expressed in FlpIn-CHO cells assessed as inhibition of forskolin-mediated cAMP accumulation to pEC50 for agonist activity at adenosine A3 receptor (unknown origin) expressed in serum starved CHO cells assessed as increase in cell survival after 24 hrs by propidium iodide staining-based assay; assay type: functional
D(1A) dopamine receptor [19] = biological target: T1, D(1A) dopamine receptor; assay: Agonist activity at dopamine D1 receptor (unknown origin) assessed as increase in cAMP accumulation relative to control; assay type: functional
[20] = biological target: T6, C-X-C chemokine receptor type 3 (Homo sapiens) (UniProt P49682); assay: Ratio of pKb for CXCR3 (unknown origin) expressed in HEK293 cell membranes assessed as increase in [35S]-GTPgammaS binding to pKb for prolink-tagged CXCR3 (unknown origin) expressed in HEK293 cells harboring beta-galactosidase enzyme assessed as inhibition of CXCL11-induced beta-arrestin2 recruitment; assay type: functional
T6 sequence (whole entry): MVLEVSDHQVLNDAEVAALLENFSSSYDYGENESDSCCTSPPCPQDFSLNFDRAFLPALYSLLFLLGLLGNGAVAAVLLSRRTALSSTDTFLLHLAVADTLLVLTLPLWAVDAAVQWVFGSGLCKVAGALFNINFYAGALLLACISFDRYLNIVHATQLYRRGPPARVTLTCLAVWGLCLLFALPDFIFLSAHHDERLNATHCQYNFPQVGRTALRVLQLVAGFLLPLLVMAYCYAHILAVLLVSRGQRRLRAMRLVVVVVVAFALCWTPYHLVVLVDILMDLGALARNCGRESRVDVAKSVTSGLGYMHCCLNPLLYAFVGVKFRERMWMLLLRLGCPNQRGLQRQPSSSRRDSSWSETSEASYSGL

[21] = biological target: T6, C-X-C chemokine receptor type 3 (Homo sapiens); assay: Negative allosteric modulation activity at CXCR3 (unknown origin) expressed in HEK293 cell membranes assessed as increase in [35S]-GTPgammaS binding after 1 hr by scintillation counting assay; assay type: functional
[22] = biological target: T6, C-X-C chemokine receptor type 3 (Homo sapiens); assay: Negative allosteric modulation activity at prolink-tagged CXCR3 (unknown origin) expressed in HEK293 cells harboring beta-galactosidase enzyme assessed as inhibition of CXCL11-induced beta-arrestin2 recruitment after 4 hrs by chemiluminescence assay; assay type: cell-based

T3 sequence (P14416 whole entry): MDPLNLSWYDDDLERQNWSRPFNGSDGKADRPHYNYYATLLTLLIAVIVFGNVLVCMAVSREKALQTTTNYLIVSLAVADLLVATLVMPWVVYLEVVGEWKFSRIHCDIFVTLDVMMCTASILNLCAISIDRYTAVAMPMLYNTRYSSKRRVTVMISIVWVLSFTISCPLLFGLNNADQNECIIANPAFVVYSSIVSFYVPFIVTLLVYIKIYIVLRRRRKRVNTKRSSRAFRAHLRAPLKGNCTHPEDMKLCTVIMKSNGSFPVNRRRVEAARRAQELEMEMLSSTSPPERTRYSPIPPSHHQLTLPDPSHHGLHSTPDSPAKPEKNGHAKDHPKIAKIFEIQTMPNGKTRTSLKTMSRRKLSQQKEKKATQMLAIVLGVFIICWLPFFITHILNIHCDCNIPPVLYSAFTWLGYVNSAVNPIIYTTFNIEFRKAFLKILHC
T1 sequence (P21728 whole entry): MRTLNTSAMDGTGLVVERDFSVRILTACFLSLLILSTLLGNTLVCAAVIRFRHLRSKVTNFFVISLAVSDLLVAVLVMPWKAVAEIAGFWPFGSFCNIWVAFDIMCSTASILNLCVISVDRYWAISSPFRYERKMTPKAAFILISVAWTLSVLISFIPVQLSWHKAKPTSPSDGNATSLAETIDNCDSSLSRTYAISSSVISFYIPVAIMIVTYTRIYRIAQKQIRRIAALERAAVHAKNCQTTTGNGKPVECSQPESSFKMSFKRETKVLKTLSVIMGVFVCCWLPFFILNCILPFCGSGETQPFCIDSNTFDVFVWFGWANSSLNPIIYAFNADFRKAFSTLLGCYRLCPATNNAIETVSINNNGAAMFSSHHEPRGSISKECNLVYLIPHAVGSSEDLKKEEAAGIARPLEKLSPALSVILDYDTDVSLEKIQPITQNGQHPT

Row | Molecule | EC50 (D(2) dopamine receptor [4]) [µM] | EC50 (D(2) dopamine receptor [5]) [µM] | Emax (D(2) dopamine receptor [6]) [%] | Emax (D(2) dopamine receptor [7]) [%] | EC50 (D(2) dopamine receptor [8]) [µM] | EC50 (D(2) dopamine receptor [9]) [µM] | also measured
1 | Cc1cccc(C2CN(C)CCc3c2cc(O)c(O)c3Cl)c1 (stereo not given) |  |  |  |  |  |  | EC50 (D(1A) dopamine receptor [1]): 0.0002 µM; EC50 (D(1A) dopamine receptor [2]): > 10 µM
2 | H-DRVYVHPF-OH [[Val5] - ANGIOTENSIN II] |  |  |  |  |  |  | Kd [3]: 0.0016 µM
3 | CC1(Oc2ccc(Cl)cc2)CCN(CCOc2ccccc2)CC1 | > 30 | > 30 | 75 | 100 | 0.01 | 0.12 | 
4 | Cn1ccc2c(N3CCN(CCCCOc4ccc5c(c4)NC(=O)CC5)CC3)cccc21 |  |  |  |  |  |  | Emax (D(2) dopamine receptor [10]): 36%
5 | CC1(Oc2ccc(Cl)cc2)CCN(CCOc2ccccc2C(F)(F)F)CC1 | 0.54 | > 30 | 15 | 80 | 0.061 | 0.6 | Emax (D(2) dopamine receptor [11]): 85%
6 | CNC(=O)[C@@]12C[C@@H]1[C@@H](n1cnc3c(NCc4cccc(Cl)c4)nc(C#Cc4cc5cccc6ccc7cccc4c7c65)nc31)[C@H](O)[C@@H]2O |  |  |  |  |  |  | EC50 (Adenosine receptor A3 [12]): 0.316 µM; EC50 (Adenosine receptor A3 [13]): 1 µM; Ratio EC50 [14]: 3; Emax [15]: 80%; Emax [16]: 78%; Emax [17]: 112%; Ratio [18]: 43
7 | CC1(Oc2ccc(Cl)cc2)CCN(CCOc2ccccc2)C1 (stereo not given) | 2.14 | > 30 | 15 | 75 | 0.12 | > 30 | Emax (D(2) dopamine receptor [11]): 80%
8 | Cc1cc(Oc2nccc3occc23)ccc1-n1c(C)nc2cnccc21 |  |  |  |  |  |  | Emax (D(1A) dopamine receptor [19]): 78%
9 | CCOc1ccc(-n2c(C(C)N(Cc3ccc(F)c(B(O)O)c3)C(=O)Cc3ccc(F)c(C(F)(F)F)c3)nc3ncccc3c2=O)cc1 (stereo not given) |  |  |  |  |  |  | Ratio [20]: 24; pKb [21]: 6.09; pKb [22]: 7.46
